Assay in all cases: growth of human tumour cells (NCI), 48 h
Assay [1] relates to HCT-15 colon.
In assay [2] the test system is SK-MEL-2 melanoma.
Assay [3] deals with HCT-116 colon.
Assay [4] deals with SW-620 colon.
For assay [5], the system named is SNB-19 CNS.
In assay [6] the test system is OVCAR-5 ovarian.
Assay [7] deals with HCC-2998 colon.
Assay [8] has as its system MDA-N.
Assay [9] concerns OVCAR-3 ovarian.
Assay [10] has as its system OVCAR-8 ovarian.
The subject of assay [11] is CAKI-1 renal.
The subject of assay [12] is SK-OV-3 ovarian.
The test system of assay [13] is NCI-H460 lung.
Assay [14] deals with 786-0 renal.

Our source for the TGI values is PubChem BioAssay (NCI).

The structures appear in SMILES notation.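 How tested: cells in 96-well plates exposed to compound for 48 hours at five concentrations. TGI is the concentration that stops growth completely.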 Where a SMILES comes first, the peptide text is derived from it. The star is where a group is joined. Cbz = O=C(OCc1ccccc1)*

`Nc1nc(N)c2c3c(cnc2n1)CC(c1ccccc1)CC3` (centres undefined): the TGI in [1] was over 100 µM; in [2], over 100 µM; in assay [3], 32.5 µM; in assay [4] it was over 100 µM; in assay [5], 46.8 µM; in assay [6] it was over 100 µM. Besides, the TGI was over 100 µM in assay [7]; over 100 µM in [8]; over 100 µM in assay [9]; 26.6 µM in assay [10]; over 100 µM in [11]; 63 µM in assay [12]. The TGI in assay [13] is over 100 µM; in [14], 24.3 µM.

`CC(=O)c1[nH]c(NCc2ccccc2)c(C(=S)Nc2ccccc2)c1N`: the TGI in assay [1] is 39.9 µM; in assay [2] it was 1.07 µM; in assay [3], 34.1 µM; in assay [4], over 100 µM; in assay [5], over 100 µM; in assay [6], 55.1 µM. Further, the TGI in assay [7] was 40.6 µM; in assay [8] it was 39.1 µM; in assay [9] it was 97.9 µM; in assay [10], 39.2 µM; in assay [11] it was 98.2 µM; in [12] it was over 100 µM. Moreover, the TGI in [13] stood at 56.5 µM; in assay [14], 32.5 µM.

`O=C1C(c2c(O)[nH]c3ccc(F)cc23)=Nc2ccccc21`: the TGI in [1], in [2], in assay [3], in assay [4], in assay [5] and in [6] was over 100 µM each time. Moreover, the TGI in assay [7] was over 100 µM; in assay [8] it was over 100 µM; in [9], over 100 µM; in [10] it was 43.8 µM; in assay [11], over 100 µM; in [12], 24.9 µM. Moreover, the TGI in [13] and in assay [14] was over 100 µM in each case.

With `O=c1[nH]nc(Cc2ccccc2)n1/N=C/c1ccccc1O`, the TGI in assay [1], in [2], in assay [3], in assay [4], in assay [5] and in assay [6] was over 100 µM in each case. Besides, the TGI in assay [7], in assay [8], in [9], in assay [10], in assay [11] and in [12] was over 100 µM in each case. The TGI in [13] and in [14] was over 100 µM each time.

With `O=C(O)CCC(NC(=O)OCc1ccccc1)C(=O)NC(Cc1cnc[nH]1)C(=O)O` (stereo not drawn) (Cbz-Glu-His-OH; configuration not given here), the TGI in assay [1], in assay [2], in [3], in assay [4], in assay [5] and in assay [6] was over 100 µM in each case. For the same molecule, the TGI in assay [7], in assay [8], in assay [9], in [10], in assay [11] and in assay [12] was over 100 µM throughout. Moreover, the TGI in assay [13] and in assay [14] was over 100 µM throughout.

`CC(C)=CC[C@]12CCN[C@H]1N(S(=O)(=O)c1ccccc1)c1ccccc12`: the TGI in assay [1] is 32.8 µM; in assay [2], 31.6 µM; in assay [3], 27.9 µM; in assay [4] it was 36.9 µM; in assay [5] it was 51.2 µM; in assay [6], over 100 µM. Besides, the TGI was 32.1 µM in assay [7]; 29.1 µM in assay [8]; 30.6 µM in assay [9]; 33.9 µM in [10]; 69.4 µM in assay [11]; 38.9 µM in [12]. Also, the figures for the TGI in assay [13] and in [14] were 29 µM and 32.2 µM, respectively.
